Reference: ChEMBL document CHEMBL1201862, “PubChem BioAssay data set” (2004)
“And” between values parts separate entries of the source, which are not always exact repeats. Equal values may be shown once.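 Compound exposure: 48 hours, 5 concentrations, 96-well plates. GI50 = concentration required for 50% inhibition of growth.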 The source made the active and inactive calls. No stated cut-off is given here; in the data, active = GI50 up to about 1.1 µM and inactive = higher.

Key:
Assay in all cases: NCI tumour cell line growth inhibition, 48 h
SF-268 = tested on: SF-268
OVCAR-5 = tested on: OVCAR-5
MOLT-4 = tested on: MOLT-4
UACC-257 = tested on: UACC-257
TK-10 = tested on: TK-10
NCI-H23 = tested on: NCI-H23
T47D = tested on: T47D
A498 = tested on: A498
Malme-3M = tested on: Malme-3M
HCT-116 = tested on: HCT-116
HT-29 = tested on: HT-29
SK-MEL-28 = tested on: SK-MEL-28
IGROV-1 = tested on: IGROV-1
HL-60 = tested on: HL-60
OVCAR-4 = tested on: OVCAR-4
NCI/ADR-RES = tested on: NCI/ADR-RES
HCT-15 = tested on: HCT-15
MCF7 = tested on: MCF7
EKVX = tested on: EKVX
SNB-19 = tested on: SNB-19
HCC 2998 = tested on: HCC 2998
OVCAR-8 = tested on: OVCAR-8
KM12 = tested on: KM12
SK-MEL-2 = tested on: SK-MEL-2
SF-539 = tested on: SF-539
K562 = tested on: K562
CCRF-CEM = tested on: CCRF-CEM
A549 = tested on: A549
SW-620 = tested on: SW-620
SNB-75 = tested on: SNB-75
COLO 205 = tested on: COLO 205
SF-295 = tested on: SF-295
MDA-MB-231 = tested on: MDA-MB-231
HOP-62 = tested on: HOP-62
PC-3 = tested on: PC-3
UO-31 = tested on: UO-31
MDA-N = tested on: MDA-N
OVCAR-3 = tested on: OVCAR-3
M14 = tested on: M14
U-251 = tested on: U-251
CAKI-1 = tested on: CAKI-1
ACHN = tested on: ACHN
LOX IMVI = tested on: LOX IMVI
SN12C = tested on: SN12C
NCI-H460 = tested on: NCI-H460
NCI-H226 = tested on: NCI-H226
HOP-92 = tested on: HOP-92
DU-145 = tested on: DU-145
NCI-H522 = tested on: NCI-H522
UACC-62 = tested on: UACC-62
SK-OV-3 = tested on: SK-OV-3
MDA-MB-435 = tested on: MDA-MB-435
RXF 393 = tested on: RXF 393
786-0 = tested on: 786-0
SK-MEL-5 = tested on: SK-MEL-5
RPMI-8226 = tested on: RPMI-8226

O=C(O)CCSc1nnc(COc2ccc(Cl)cc2)n1-c1ccccc1
GI50 (SF-268): > 100 µM (inactive)
GI50 (OVCAR-5): > 100 µM (inactive)
GI50 (MOLT-4): > 100 µM (inactive)
GI50 (UACC-257): > 100 µM (inactive)
GI50 (TK-10): > 100 µM (inactive)
GI50 (NCI-H23): > 100 µM (inactive)
GI50 (T47D): > 100 µM (inactive)
GI50 (A498): > 100 µM (inactive)
GI50 (Malme-3M): > 100 µM (inactive)
GI50 (HCT-116): > 100 µM (inactive)
GI50 (HT-29): > 100 µM (inactive)
GI50 (SK-MEL-28): > 100 µM (inactive)
GI50 (IGROV-1): > 100 µM (inactive)
GI50 (HL-60): > 100 µM (inactive)
GI50 (OVCAR-4): > 100 µM (inactive)
GI50 (NCI/ADR-RES): > 100 µM (inactive)
GI50 (HCT-15): > 100 µM
GI50 (MCF7): > 100 µM (inactive)
GI50 (EKVX): > 100 µM (inactive)
GI50 (SNB-19): > 100 µM (inactive)
GI50 (HCC 2998): > 100 µM (inactive)
GI50 (OVCAR-8): > 100 µM (inactive)
GI50 (KM12): > 100 µM (inactive)
GI50 (SK-MEL-2): > 100 µM (inactive)
GI50 (SF-539): > 100 µM (inactive)
GI50 (K562): > 100 µM (inactive)
GI50 (CCRF-CEM): 95.3 µM (inactive)
GI50 (A549): > 100 µM (inactive)
GI50 (SW-620): > 100 µM (inactive)
GI50 (SNB-75): > 100 µM (inactive)
GI50 (COLO 205): > 100 µM (inactive)
GI50 (SF-295): > 100 µM (inactive)
GI50 (MDA-MB-231): > 100 µM (inactive)
GI50 (HOP-62): > 100 µM (inactive)
GI50 (PC-3): > 100 µM (inactive)
GI50 (UO-31): > 100 µM (inactive)
GI50 (MDA-N): > 100 µM (inactive)
GI50 (OVCAR-3): > 100 µM (inactive)
GI50 (M14): > 100 µM (inactive)
GI50 (U-251): > 100 µM (inactive)
GI50 (CAKI-1): > 100 µM (inactive)
GI50 (ACHN): > 100 µM (inactive)
GI50 (LOX IMVI): > 100 µM (inactive)
GI50 (SN12C): > 100 µM (inactive)
GI50 (NCI-H460): > 100 µM (inactive)
GI50 (NCI-H226): > 100 µM (inactive)
GI50 (HOP-92): > 100 µM (inactive)
GI50 (DU-145): > 100 µM (inactive)
GI50 (NCI-H522): > 100 µM (inactive)
GI50 (UACC-62): > 100 µM (inactive)
GI50 (SK-OV-3): > 100 µM (inactive)
GI50 (MDA-MB-435): > 100 µM (inactive)
GI50 (RXF 393): > 100 µM (inactive)
GI50 (786-0): > 100 µM (inactive)

O=C1C=C2C=CC3CC2(O1)C1CCCCN31 (centres undefined)
GI50 (Malme-3M): 14.9 µM (inactive)
GI50 (HL-60): 17.2 µM (inactive)
GI50 (SNB-19): 28.3 µM (inactive) and 32.4 µM (inactive) and 18.7 µM (inactive)
GI50 (HCC 2998): 16.8 µM (inactive) and 20.3 µM (inactive) and 27.3 µM (inactive)
GI50 (OVCAR-8): 17.3 µM (inactive) and 28.3 µM (inactive) and 19.1 µM (inactive)
GI50 (KM12): 19.2 µM (inactive) and 14.8 µM (inactive) and 12.5 µM (inactive)
GI50 (SK-MEL-2): 28.1 µM (inactive) and 16.8 µM (inactive) and 27.9 µM (inactive)
GI50 (SF-295): 23.3 µM (inactive) and 35.3 µM (inactive) and 45.2 µM (inactive)
GI50 (PC-3): 21.5 µM (inactive) and 40.4 µM (inactive) and 25.1 µM (inactive)
GI50 (HOP-92): 12.7 µM (inactive) and 18.3 µM (inactive) and 22.8 µM (inactive)
GI50 (SK-OV-3): 20.5 µM (inactive) and 33.7 µM (inactive) and 30.6 µM (inactive)

CSc1ccc(C(=C=C=C(c2ccc(SC)s2)c2ccc(SC)s2)c2ccc(SC)s2)s1
GI50 (SF-268): > 10 µM (inactive)
GI50 (OVCAR-5): > 10 µM (inactive)
GI50 (TK-10): > 10 µM (inactive)
GI50 (NCI-H23): > 10 µM (inactive)
GI50 (SK-MEL-5): > 10 µM (inactive)
GI50 (A498): > 10 µM (inactive)
GI50 (HCT-116): > 10 µM (inactive)
GI50 (HT-29): > 10 µM (inactive)
GI50 (SK-MEL-28): > 10 µM (inactive)
GI50 (IGROV-1): > 10 µM (inactive)
GI50 (OVCAR-4): > 10 µM (inactive)
GI50 (NCI/ADR-RES): > 10 µM (inactive)
GI50 (HCT-15): > 10 µM
GI50 (EKVX): > 10 µM (inactive)
GI50 (SNB-19): > 10 µM (inactive)
GI50 (OVCAR-8): > 10 µM (inactive)
GI50 (KM12): > 10 µM (inactive)
GI50 (SF-539): > 10 µM (inactive)
GI50 (A549): > 10 µM (inactive)
GI50 (SW-620): > 10 µM (inactive)
GI50 (SNB-75): > 10 µM (inactive)
GI50 (COLO 205): > 10 µM (inactive)
GI50 (SF-295): > 10 µM (inactive)
GI50 (MDA-MB-231): > 10 µM (inactive)
GI50 (PC-3): > 10 µM (inactive)
GI50 (UO-31): > 10 µM (inactive)
GI50 (MDA-N): > 10 µM (inactive)
GI50 (OVCAR-3): > 10 µM (inactive)
GI50 (M14): > 10 µM (inactive)
GI50 (U-251): > 10 µM (inactive)
GI50 (CAKI-1): > 10 µM (inactive)
GI50 (ACHN): > 10 µM (inactive)
GI50 (SN12C): > 10 µM (inactive)
GI50 (NCI-H226): > 10 µM (inactive)
GI50 (HOP-92): > 10 µM (inactive)
GI50 (DU-145): > 10 µM (inactive)
GI50 (MDA-MB-435): > 10 µM (inactive)
GI50 (RXF 393): > 10 µM (inactive)

O=C(c1ccc(Cl)c(Cl)c1)N1CCN(C(=O)c2ccc(Cl)c(Cl)c2)C1=S
GI50 (RPMI-8226): 1.83 µM (inactive)
